Measurements reported in the NIST ThermoML archive (doi:10.1016/j.jct.2006.09.012).
Where “and” joins values, the source holds several entries; their conditions need not be identical. Identical values can stand only once.

Details: Gas, Buoyancy - hydrostatic balance with magnetic suspension - two sinkers

[He] [helium]
Details | mass density
273.16 K, 31577 kPa | 47.957 kg/m3 and 47.9575 kg/m3
273.16 K, 31578 kPa | 47.9581 kg/m3 and 47.9577 kg/m3
273.16 K, 31775 kPa | 48.2167 kg/m3
273.16 K, 31776 kPa | 48.2177 kg/m3
273.16 K, 31777 kPa | 48.2188 kg/m3
273.16 K, 31778 kPa | 48.22 kg/m3
273.16 K, 31779 kPa | 48.2215 kg/m3
273.16 K, 31780 kPa | 48.2235 kg/m3
273.16 K, 31865 kPa | 48.3344 kg/m3 and 48.3352 kg/m3
273.16 K, 31866 kPa | 48.3358 kg/m3
273.16 K, 31867 kPa | 48.3368 kg/m3 and 48.3375 kg/m3
273.16 K, 32210 kPa | 48.7873 kg/m3
273.16 K, 32211 kPa | 48.788 kg/m3
273.16 K, 32212 kPa | 48.7903 kg/m3 and 48.7886 kg/m3
273.16 K, 32213 kPa | 48.7913 kg/m3
273.16 K, 37198 kPa | 55.185 kg/m3
273.16 K, 37199 kPa | 55.1865 kg/m3
273.16 K, 37200 kPa | 55.1874 kg/m3
273.16 K, 37201 kPa | 55.1885 kg/m3 and 55.1895 kg/m3
273.16 K, 37514 kPa | 55.5816 kg/m3
273.16 K, 37515 kPa | 55.5829 kg/m3
273.16 K, 37517 kPa | 55.5843 kg/m3
273.16 K, 37518 kPa | 55.5858 kg/m3
273.16 K, 37520 kPa | 55.5878 kg/m3
273.16 K, 37531 kPa | 55.6035 kg/m3
273.16 K, 37536 kPa | 55.6095 kg/m3
273.16 K, 37537 kPa | 55.6109 kg/m3
273.16 K, 37539 kPa | 55.6125 kg/m3
273.16 K, 37540 kPa | 55.6136 kg/m3
273.16 K, 38114 kPa | 56.3321 kg/m3 and 56.3327 kg/m3
273.16 K, 38115 kPa | 56.3338 kg/m3
273.16 K, 38116 kPa | 56.335 kg/m3 and 56.3346 kg/m3
293.15 K, 980.1 kPa | 1.6025 kg/m3
293.15 K, 980.2 kPa | 1.6025 kg/m3 and 1.6026 kg/m3
293.15 K, 1731.6 kPa | 2.8204 kg/m3 and 2.8205 kg/m3 and 2.8207 kg/m3
293.15 K, 3908.9 kPa | 6.3007 kg/m3 [middle of 5 runs]
293.15 K, 4006.9 kPa | 6.4542 kg/m3
293.15 K, 4007 kPa | 6.4541 kg/m3 and 6.4543 kg/m3 and 6.4542 kg/m3
293.15 K, 7058 kPa | 11.2086 kg/m3
293.15 K, 7058.1 kPa | 11.2089 kg/m3 and 11.2088 kg/m3
293.15 K, 7058.2 kPa | 11.2089 kg/m3
293.15 K, 7881.3 kPa | 12.4696 kg/m3
293.15 K, 7881.6 kPa | 12.4701 kg/m3
293.15 K, 7882.1 kPa | 12.4707 kg/m3
293.15 K, 7882.6 kPa | 12.4715 kg/m3
293.15 K, 7883 kPa | 12.4722 kg/m3
293.15 K, 10034 kPa | 15.7199 kg/m3
293.15 K, 10035 kPa | 15.7202 kg/m3 and 15.7205 kg/m3
293.15 K, 11762 kPa | 18.2837 kg/m3 [middle of 5 runs]
293.15 K, 14018 kPa | 21.5714 kg/m3 [middle of 8 runs]
293.15 K, 16004 kPa | 24.4152 kg/m3
293.15 K, 16005 kPa | 24.4156 kg/m3 [middle of 4 runs]
293.15 K, 18018 kPa | 27.2473 kg/m3 and 27.2468 kg/m3 and 27.2464 kg/m3
293.15 K, 18019 kPa | 27.2479 kg/m3 [middle of 5 runs]
293.15 K, 19905 kPa | 29.8586 kg/m3 and 29.8588 kg/m3
293.15 K, 19906 kPa | 29.8595 kg/m3 and 29.8599 kg/m3 and 29.8592 kg/m3
293.15 K, 24474 kPa | 36.0124 kg/m3 [middle of 4 runs]
293.15 K, 24475 kPa | 36.0141 kg/m3 and 36.0137 kg/m3
293.15 K, 24476 kPa | 36.0152 kg/m3
293.15 K, 25777 kPa | 37.7285 kg/m3
293.15 K, 25778 kPa | 37.7301 kg/m3 and 37.7298 kg/m3 and 37.7293 kg/m3
293.15 K, 25779 kPa | 37.7309 kg/m3
293.15 K, 29507 kPa | 42.5361 kg/m3
293.15 K, 29508 kPa | 42.5375 kg/m3 and 42.5373 kg/m3
293.15 K, 29509 kPa | 42.5383 kg/m3
293.15 K, 29510 kPa | 42.5393 kg/m3 and 42.5394 kg/m3
293.15 K, 29511 kPa | 42.5405 kg/m3
293.15 K, 31846 kPa | 45.4829 kg/m3
293.15 K, 31847 kPa | 45.4837 kg/m3
293.15 K, 31848 kPa | 45.4862 kg/m3 and 45.4845 kg/m3
293.15 K, 31850 kPa | 45.4879 kg/m3
293.15 K, 38003 kPa | 52.9909 kg/m3
293.15 K, 38004 kPa | 52.9921 kg/m3
293.15 K, 38005 kPa | 52.993 kg/m3
293.15 K, 38006 kPa | 52.9944 kg/m3
293.15 K, 38007 kPa | 52.9958 kg/m3
293.16 K, 10034 kPa | 15.7195 kg/m3
323.15 K, 1780.1 kPa | 2.6324 kg/m3 and 2.6323 kg/m3 and 2.6322 kg/m3
323.15 K, 1780.2 kPa | 2.6323 kg/m3
323.15 K, 3959.1 kPa | 5.7989 kg/m3 and 5.7987 kg/m3
323.15 K, 7974.3 kPa | 11.4834 kg/m3 and 11.4836 kg/m3
323.15 K, 7974.4 kPa | 11.4837 kg/m3 and 11.4836 kg/m3
323.15 K, 11648 kPa | 16.5228 kg/m3 [middle of 5 runs]
323.15 K, 15081 kPa | 21.0997 kg/m3
323.15 K, 15082 kPa | 21.1007 kg/m3 and 21.1001 kg/m3 and 21.1 kg/m3
323.15 K, 19305 kPa | 26.565 kg/m3 and 26.5643 kg/m3 and 26.5647 kg/m3
323.15 K, 19306 kPa | 26.5662 kg/m3 and 26.5653 kg/m3
323.15 K, 25679 kPa | 34.4876 kg/m3 and 34.4883 kg/m3
323.15 K, 25680 kPa | 34.4886 kg/m3 and 34.489 kg/m3 and 34.4895 kg/m3
323.15 K, 31795 kPa | 41.7513 kg/m3 and 41.752 kg/m3
323.15 K, 31796 kPa | 41.7528 kg/m3
323.15 K, 31797 kPa | 41.7536 kg/m3 and 41.7543 kg/m3
323.15 K, 37888 kPa | 48.6852 kg/m3
323.15 K, 37889 kPa | 48.6863 kg/m3
323.15 K, 37890 kPa | 48.6876 kg/m3
323.15 K, 37891 kPa | 48.6888 kg/m3
323.15 K, 37892 kPa | 48.6904 kg/m3
